The results in this text go back to patent publication US20060194819A1, “Activation specific inhibitors of nf-kb and method of treating inflammatory processes in cardio-vascular diseases” (PROCORDE GMBH, priority 2003, published 2006).

Read-outs that look alike come from different tables or passages of the source.

The test system of series [1] is I KappaB alpha phosphorylation. Briefly: P-IkBalpha detection in Western blot of HeLa cell lysates after TNF alpha stimulation. It counts as cell-based. The settings on record: HeLa cells, 10 and 100 μM. The procedure: P-IkBα Detektion in Western-Blot Protocol: HeLa cells were maintained in Dulbecco's modified Eagle's medium (Invitrogen) supplemented with 10% fetal bovine serum, 2 mM L-glutamine, penicillin (50 units/ml) and streptomycin (50 μg/ml). 24 h before treatment with different compounds HeLa cells were plated at a density of 5×10^6 per well in 100-mm cell culture dishes to 90% confluences.
The cells were incubated with different drugs at the concentration indicated for 1 h, washed twice with PBS and stimulated with 20 ng/ml TNF alpha (Roche). After 7 min the cells were washed twice with ice cold PBS followed by scraping and transferring into a 1.5 ml micro centrifuge tube. After centrifugation by 2000 rpm for 2 min by 4° C. the PBS supernatant was removed and 200 μl lysis-buffer (10 mM Hepes, pH 7.9, 0.1% NP40, 10 mM, 300 mM Sucrose, 10 mM KCl, 15 mM MgCl2, 1 mM DTT, 0.5 mM PMSF and antipain, aprotinin, leupeptin each 0.75 μg/ml (Sigma) was added to the pellet. The resuspended pellet was incubated on ice for 5 min and centrifuged at 13000 g for 30 s. 30 μl of the supernatant, cytosolic extract, was diluted with Laemmli-buffer (2% SDS, 2% 2-Mercaptoethanol, 0.01% Bromophenol blue, 8% Glycerine), heated by 60° C. for 10 min and loaded to a 4-20% polyacrylamid gels (BioRad). After electrophoresis the proteins were transferred to a nitrocellulose membrane using the wet blotting technique. First the membrane was blocked with Roti-Block (Roth) and afterwards incubated with monoclonal antibodies against P-IkBalpha (Santa Cruz Biotechnology, used at 1:200 dilution). This incubation was followed by the appropriate horseradish peroxidase-conjugated secondary antibody (Dianova) at 1:10000 dilution. Antibody binding was visualized on x-ray film using the Western blot Chemiluminescent Reagent Detection Kit (Santa Cruz).
On the technique in general: A western blot detects proteins with antibodies after separation by electrophoresis.

For another series, the system named is HeLa cells. Briefly: Cell viability, WST-1 assay. Type of series: cell-based. On the procedure:
[…] The medium was changed and 10 μL of the WST-1 reagent was added to each well. After 2 h the absorption of 450 nm was measured in an Elisa-reader.
In general terms: Tetrazolium dyes change colour on reduction, which living cells bring about.

In series [2] the test system is ICAM expression in HUVEC cells. Briefly: ICAM expression in HUVEC cells by FACS analysis. The settings on record: Homo sapiens, read-out: IC50 for inhibition of ICAM expression. It counts as cell-based. On the procedure: HUVEC cells were seeded in 6-well plates 1×10^6 cells/well. After 24 h the cells were treated with different concentration of compound 68. After 1 h the medium was removed and the cells incubated with either IL-1 (100 pg/ml) or TNF alpha (1 ng/ml) for a total of 4 h. Thereafter the cells were harvested with trypsin, washed with PBS and centrifuged with 1000 rpm for 5 min. The pellet was resuspended in 50 μl PBS and 5 μl CD54-PE antibody (anti-ICAM antibody from Beckman/Coulter/Immunotech). After washing twice in PBS, the ICAM cell surface expression was analysed by a FACScan (Becton Dickinson).
(In flow cytometry, cells or beads pass a laser one at a time.)

Series [3] in a line: Solubility tests, 1.2 mg in 500 μl of each solvent. It counts as physicochemical. On the procedure:
Solubility tests were performed with aliquots of compound 4 (1.2 mg) and 500 μl of each solvent.

Series [4] can be described thus: Isomerization in solution observed by NMR. Type of series: physicochemical. From the text:
These signals were tentatively attributed to a cis/trans isomer of compound 4. The signal intensities of this isomer accounted for approximately 10% of the signals due to the major product. In acetone-db, this isomerization was slower and occurred within days.

Another series concerns NF-kappaB. The series can be described thus: Electrophoretic mobility shift assay (EMSA) for NF-kappaB in LPS stimulated THP-1 monocytic cells. The settings on record: THP-1 cells; for NF-kappaB activation: LPS. Type of series: cell-based. On the procedure: Electrophoretic Mobility Shift Assay (EMSA): THP-1 monocytic cells (DSM, Braunschweig, Germany) were maintained in suspension in RPMI 1640 (Glutamax-1, low endotoxin) containing 7% fetal calf serum (FCS) (Myoclone super plus, low endotoxin), 100 units/ml penicillin, and […] streptomycin (Life Technologies, Inc., Eggenstein, Germany). For the experiments, the cells were plated at a density of 3×10^6 per well in 6-well culture dishes. Nuclear extracts were prepared by harvesting cells by centrifugation at 1200 rpm for 7 min at 4° C. The cells were resuspended by adding 1 ml ice cold PBS and transferred into a microcentrifuge tube. After centrifugation at 2000 g for 2 min by 4° C. the pellet was lysed in 50 μl buffer A (10 mM Hepes, pH 7.9, 0.1% NP40, 10 mM, 300 mM Sucrose, 10 mM KCl, 15 mM MgCl2, 1 mM DTT, 0.5 mM PMSF and antipain, aprotinin, leupeptin each 0.75 μg/ml (Sigma)). After 5 min incubation on ice and centrifugation at 16000 g for 5 sec the pellet was washed with 100 μl buffer A. The nuclear pellet was resuspended with 100 μl buffer B (20 mM Hepes, pH 7.9, 100 mM KCl, 100 mM NaCl, 1 mM DTT, 20% Glycerol, 0.5 mM PMSF and antipain, aprotinin, leupeptin each 0.75 μg/ml (Sigma)) and sonicated for 10 sec. The probe was pulse centrifuged at 16000 g for 5 sec. The nuclear extract was aliquoted and snap-freeze in liquid N2. Nuclear extracts ([…] of protein) were incubated with radiolabeled DNA probes (10 ng; 10^5 cpm) for 30 min at room temperature in […] of binding buffer (20 mM HEPES, pH 7.9, 50 mM KCl, 1 mM dithiothreitol, 0.5 mM EDTA, 10% glycerol, 1 mg/ml bovine serum albumin, 0.2% Nonidet P-40, 50 ng of poly(dI-dC)/ml). […] The binding of Sp-1 and AP-1 was also analysed by EMSA using specific consensus oligonucleotides (Promega, Heidelberg, Germany) that were labeled with [γ-^32P]ATP (>5,000 Ci/mmol, NEN Life Science Products) and T4 polynucleotide kinase (Boehringer Mannheim). Gels were dried and analysed by autoradiography. […]

The IC50 is the point on the concentration scale where inhibition reaches its midpoint. As to `O=C(NN=Cc1ccccc1O)c1ccc([N+](=O)[O-])o1` [COM 68, 5-Nitro-furan-2-carboxylic acid (2-hydroxy-benzylidene)-hydrazide], the “effect on IkappaB phosphorylation (Western blot), comparison of COM 73 and COM 54 family” value in series [1] was “no effect”. For the same molecule, the “cell viability (WST staining)” value in the series with HeLa cells (HeLa cells, 33 and 100 μmol/L, one day) is on record as “decreased cell viability”. In addition, the IC50 in series [2] (after IL-1 stimulation (100 pg/ml)) was 7.8 µM; in series [2] (after TNF alpha stimulation (1 ng/ml)), 4.5 µM. Besides, the Solubility entry in series [3] (Acetone) was “++++ (++++: 100% dissolved)”; in series [3] (DMSO), “++++ (++++: 100% dissolved)”; in series [3] (H2O), “− (−: 0% dissolved)”; in series [3] (MeCN), “+++ (+++: 80% dissolved)”; in series [3] (MeOH), “+ (+: 20% dissolved)”. Moreover, the “signal intensities of the isomer relative to the major product” value in series [4] (DMSO-d6, rt) was “approximately 10%”. In series [4] (DMSO-d6, rt), the “time to appearance of second set of NMR signals (cis/trans isomer)” value is given as “within minutes”. The time of isomerization entry in series [4] (acetone-d6) is “within days”.
Regarding `O=C(N/N=C/c1ccc(/C=N/NC(=O)c2ccc([N+](=O)[O-])o2)cc1)c1ccc([N+](=O)[O-])o1` [Compound 54], the “effect on IkappaB phosphorylation (Western blot), comparison of COM 73 and COM 54 family” value in series [1] was “no effect”. For the same molecule, the NF-kappaB activation entry in the series with NF-kappaB (12.5 μM and 25 μM) is given as “significantly affected”; with NF-kappaB (50 μM and 100 μM), “nearly completely abolished”. Besides, in the series on NF-kappaB (100 μM, 1 h, LPS 1 μg/ml), the “reduced NF-kappaB-release” value turned out to be 95%. For the same molecule, the “decrease in metabolic activity compared with untreated control (WST-1)” value with HeLa cells (HeLa cells, 30 μM, 3 h) is on record as “no significant decrease”. Also, the “influence on cell viability (WST staining)” value in the series with HeLa cells (HeLa cells, 0.3 to 100 μmol/L, one day) is on record as “no negative influence”. In the series with HeLa cells (concentrations and conditions of the described assays), the “toxicity for HeLa cells (WST-1)” value is “not found to be toxic”.
